Several values for one entry are separate records, joined by “and”; a condition that tells them apart may be missing. Equal entries are not always repeated.
What was measured:
Assay in all cases: biochemical
[1] = molecular target: MARK2 (Homo sapiens, UniProt Q7KZI7)
[2] = molecular target: T1, PDPK1 (Homo sapiens, UniProt O15530)
T1 sequence (O15530 1-556): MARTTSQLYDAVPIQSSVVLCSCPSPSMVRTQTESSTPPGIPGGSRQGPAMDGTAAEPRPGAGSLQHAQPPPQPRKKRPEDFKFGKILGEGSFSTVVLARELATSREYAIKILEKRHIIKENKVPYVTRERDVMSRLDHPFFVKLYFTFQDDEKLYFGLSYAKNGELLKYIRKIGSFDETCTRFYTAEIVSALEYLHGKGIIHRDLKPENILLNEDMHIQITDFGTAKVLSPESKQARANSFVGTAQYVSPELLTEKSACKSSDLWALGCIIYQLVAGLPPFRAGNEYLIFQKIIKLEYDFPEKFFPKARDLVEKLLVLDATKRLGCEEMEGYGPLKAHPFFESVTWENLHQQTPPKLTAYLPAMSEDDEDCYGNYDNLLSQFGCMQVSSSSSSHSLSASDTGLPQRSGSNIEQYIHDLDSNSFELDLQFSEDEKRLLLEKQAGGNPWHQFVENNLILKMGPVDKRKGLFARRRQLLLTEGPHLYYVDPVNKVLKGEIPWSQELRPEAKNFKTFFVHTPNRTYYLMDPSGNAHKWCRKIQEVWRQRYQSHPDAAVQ

[3] = molecular target: CDC42BPG (Homo sapiens, UniProt Q6DT37)
Chain of CDC42BPG (Q6DT37 whole entry): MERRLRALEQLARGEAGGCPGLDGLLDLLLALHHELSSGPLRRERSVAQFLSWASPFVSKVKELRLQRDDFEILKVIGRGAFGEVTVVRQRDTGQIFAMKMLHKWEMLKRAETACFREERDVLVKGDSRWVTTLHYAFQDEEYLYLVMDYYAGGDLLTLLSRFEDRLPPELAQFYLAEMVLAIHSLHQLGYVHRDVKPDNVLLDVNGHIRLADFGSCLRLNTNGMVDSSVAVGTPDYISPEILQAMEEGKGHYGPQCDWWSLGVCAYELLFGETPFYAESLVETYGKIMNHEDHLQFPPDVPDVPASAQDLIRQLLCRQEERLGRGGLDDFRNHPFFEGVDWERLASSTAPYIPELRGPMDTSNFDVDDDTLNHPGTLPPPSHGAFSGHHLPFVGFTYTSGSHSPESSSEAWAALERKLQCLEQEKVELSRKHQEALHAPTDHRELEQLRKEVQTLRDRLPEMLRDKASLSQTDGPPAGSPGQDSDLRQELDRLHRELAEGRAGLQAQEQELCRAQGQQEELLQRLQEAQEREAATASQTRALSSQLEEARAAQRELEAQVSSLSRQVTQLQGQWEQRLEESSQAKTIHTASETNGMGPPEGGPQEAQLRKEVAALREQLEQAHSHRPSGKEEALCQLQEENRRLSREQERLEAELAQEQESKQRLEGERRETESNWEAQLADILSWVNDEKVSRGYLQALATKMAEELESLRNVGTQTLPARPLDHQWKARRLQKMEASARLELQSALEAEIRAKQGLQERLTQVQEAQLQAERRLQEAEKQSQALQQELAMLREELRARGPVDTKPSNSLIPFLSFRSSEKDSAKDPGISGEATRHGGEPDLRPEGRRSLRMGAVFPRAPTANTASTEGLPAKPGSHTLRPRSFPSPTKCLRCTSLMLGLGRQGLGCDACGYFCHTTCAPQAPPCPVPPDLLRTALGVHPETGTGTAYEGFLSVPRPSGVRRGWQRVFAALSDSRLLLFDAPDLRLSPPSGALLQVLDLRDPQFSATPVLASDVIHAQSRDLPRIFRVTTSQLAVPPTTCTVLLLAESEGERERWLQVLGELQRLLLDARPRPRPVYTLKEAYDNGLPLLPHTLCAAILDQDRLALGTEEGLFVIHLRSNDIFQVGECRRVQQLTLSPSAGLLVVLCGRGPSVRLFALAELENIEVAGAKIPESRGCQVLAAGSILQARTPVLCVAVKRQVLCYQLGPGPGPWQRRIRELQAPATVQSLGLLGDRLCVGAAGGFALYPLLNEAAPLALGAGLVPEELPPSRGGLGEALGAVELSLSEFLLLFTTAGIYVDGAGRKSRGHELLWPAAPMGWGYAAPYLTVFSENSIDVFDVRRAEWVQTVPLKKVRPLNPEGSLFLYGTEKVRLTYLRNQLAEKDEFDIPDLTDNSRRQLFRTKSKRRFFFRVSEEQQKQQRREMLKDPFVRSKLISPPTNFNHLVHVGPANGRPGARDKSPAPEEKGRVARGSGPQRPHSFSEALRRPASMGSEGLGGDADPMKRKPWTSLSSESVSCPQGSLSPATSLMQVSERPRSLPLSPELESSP

[4] = molecular target: CSNK1A1 (Homo sapiens, UniProt P48729)
Chain of CSNK1A1 (P48729 whole entry): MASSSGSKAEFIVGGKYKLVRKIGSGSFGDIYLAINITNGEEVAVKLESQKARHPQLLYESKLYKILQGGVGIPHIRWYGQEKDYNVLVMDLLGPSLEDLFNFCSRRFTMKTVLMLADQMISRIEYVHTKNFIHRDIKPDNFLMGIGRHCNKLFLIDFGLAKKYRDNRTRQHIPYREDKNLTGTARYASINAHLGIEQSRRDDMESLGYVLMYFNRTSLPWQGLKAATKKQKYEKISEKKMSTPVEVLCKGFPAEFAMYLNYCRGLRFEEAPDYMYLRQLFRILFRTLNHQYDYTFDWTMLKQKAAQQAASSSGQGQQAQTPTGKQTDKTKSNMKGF

[5] = molecular target: T2, NEK9 (Homo sapiens, UniProt Q8TD19)
T2 sequence (Q8TD19 1-979): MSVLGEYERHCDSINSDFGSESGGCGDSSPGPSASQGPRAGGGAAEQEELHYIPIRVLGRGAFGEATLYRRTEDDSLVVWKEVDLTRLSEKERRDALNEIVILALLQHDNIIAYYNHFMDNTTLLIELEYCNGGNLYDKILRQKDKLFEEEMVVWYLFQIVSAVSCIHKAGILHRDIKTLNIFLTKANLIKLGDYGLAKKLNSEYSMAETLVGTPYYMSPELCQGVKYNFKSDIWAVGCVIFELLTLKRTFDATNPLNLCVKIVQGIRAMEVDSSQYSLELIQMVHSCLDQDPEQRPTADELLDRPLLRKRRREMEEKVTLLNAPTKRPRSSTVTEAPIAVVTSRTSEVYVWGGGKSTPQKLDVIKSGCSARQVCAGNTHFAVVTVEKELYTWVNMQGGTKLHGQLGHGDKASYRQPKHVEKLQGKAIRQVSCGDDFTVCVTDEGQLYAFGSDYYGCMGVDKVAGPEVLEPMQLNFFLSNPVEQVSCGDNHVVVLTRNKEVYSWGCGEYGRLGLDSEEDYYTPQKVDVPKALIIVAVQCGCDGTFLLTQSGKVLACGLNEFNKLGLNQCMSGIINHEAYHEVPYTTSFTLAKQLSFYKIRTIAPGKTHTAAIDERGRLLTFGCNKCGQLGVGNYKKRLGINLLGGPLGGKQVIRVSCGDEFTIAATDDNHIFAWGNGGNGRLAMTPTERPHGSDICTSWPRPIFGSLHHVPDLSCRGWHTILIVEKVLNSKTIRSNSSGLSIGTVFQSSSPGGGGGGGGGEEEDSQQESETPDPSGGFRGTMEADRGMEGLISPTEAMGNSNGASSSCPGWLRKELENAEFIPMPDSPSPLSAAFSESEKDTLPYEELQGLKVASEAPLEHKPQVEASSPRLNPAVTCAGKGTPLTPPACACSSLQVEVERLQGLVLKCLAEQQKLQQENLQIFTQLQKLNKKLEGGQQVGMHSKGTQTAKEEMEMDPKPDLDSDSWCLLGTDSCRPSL

[6] = molecular target: WEE1 (Homo sapiens, UniProt P30291)
Chain of WEE1 (P30291 whole entry): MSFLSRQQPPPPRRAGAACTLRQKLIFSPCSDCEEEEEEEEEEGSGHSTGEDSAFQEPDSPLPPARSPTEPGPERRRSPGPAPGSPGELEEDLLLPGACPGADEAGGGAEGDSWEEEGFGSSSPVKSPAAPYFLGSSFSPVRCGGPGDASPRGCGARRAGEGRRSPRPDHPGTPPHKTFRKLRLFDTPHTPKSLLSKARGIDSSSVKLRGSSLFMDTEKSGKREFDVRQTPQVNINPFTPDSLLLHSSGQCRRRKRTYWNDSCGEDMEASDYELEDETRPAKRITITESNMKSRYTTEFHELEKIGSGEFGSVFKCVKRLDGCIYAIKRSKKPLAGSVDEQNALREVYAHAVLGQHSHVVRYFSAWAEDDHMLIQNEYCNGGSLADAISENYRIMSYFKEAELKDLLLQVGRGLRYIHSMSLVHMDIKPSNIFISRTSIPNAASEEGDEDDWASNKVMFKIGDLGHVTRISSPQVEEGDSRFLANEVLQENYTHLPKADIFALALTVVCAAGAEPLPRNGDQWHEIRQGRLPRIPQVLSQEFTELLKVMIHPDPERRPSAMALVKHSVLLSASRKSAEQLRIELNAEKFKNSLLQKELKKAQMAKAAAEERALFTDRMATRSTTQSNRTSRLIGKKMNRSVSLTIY

[7] = molecular target: T3, TNK1 (Homo sapiens, UniProt Q13470)
T3 sequence (Q13470 1-666): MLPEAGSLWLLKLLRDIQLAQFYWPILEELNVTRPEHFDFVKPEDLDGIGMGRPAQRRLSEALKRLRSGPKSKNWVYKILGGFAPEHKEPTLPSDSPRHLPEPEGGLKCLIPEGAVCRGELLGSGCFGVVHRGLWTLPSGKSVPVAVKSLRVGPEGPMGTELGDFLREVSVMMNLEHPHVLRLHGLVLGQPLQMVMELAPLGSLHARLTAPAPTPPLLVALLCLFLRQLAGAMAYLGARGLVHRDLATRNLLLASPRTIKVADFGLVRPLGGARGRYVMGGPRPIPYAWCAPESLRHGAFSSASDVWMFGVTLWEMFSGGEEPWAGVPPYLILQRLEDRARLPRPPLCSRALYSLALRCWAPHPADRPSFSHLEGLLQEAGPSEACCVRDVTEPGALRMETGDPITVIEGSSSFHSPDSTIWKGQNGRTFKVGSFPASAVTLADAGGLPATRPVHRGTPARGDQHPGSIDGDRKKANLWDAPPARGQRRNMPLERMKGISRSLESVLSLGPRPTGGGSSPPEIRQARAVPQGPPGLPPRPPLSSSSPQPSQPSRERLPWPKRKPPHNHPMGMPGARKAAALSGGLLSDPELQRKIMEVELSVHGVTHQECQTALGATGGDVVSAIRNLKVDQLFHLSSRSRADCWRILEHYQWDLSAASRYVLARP

[8] = molecular target: T4, ULK3 (Homo sapiens, UniProt Q6PHR2)
T4 sequence (Q6PHR2 1-472): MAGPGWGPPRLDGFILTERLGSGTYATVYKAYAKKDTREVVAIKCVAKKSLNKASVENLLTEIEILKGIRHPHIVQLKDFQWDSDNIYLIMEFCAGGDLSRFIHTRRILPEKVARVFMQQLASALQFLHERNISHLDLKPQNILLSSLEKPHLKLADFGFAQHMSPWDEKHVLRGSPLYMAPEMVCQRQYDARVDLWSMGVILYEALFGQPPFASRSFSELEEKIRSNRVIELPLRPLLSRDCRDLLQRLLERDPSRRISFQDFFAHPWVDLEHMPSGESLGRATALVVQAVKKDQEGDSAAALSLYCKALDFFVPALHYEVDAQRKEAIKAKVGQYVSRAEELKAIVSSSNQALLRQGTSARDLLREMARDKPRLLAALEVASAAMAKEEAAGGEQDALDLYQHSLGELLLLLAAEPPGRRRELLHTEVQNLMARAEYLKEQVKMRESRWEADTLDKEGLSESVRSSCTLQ

[9] = molecular target: BTK (Homo sapiens, UniProt Q06187)
Chain of BTK (Q06187 whole entry): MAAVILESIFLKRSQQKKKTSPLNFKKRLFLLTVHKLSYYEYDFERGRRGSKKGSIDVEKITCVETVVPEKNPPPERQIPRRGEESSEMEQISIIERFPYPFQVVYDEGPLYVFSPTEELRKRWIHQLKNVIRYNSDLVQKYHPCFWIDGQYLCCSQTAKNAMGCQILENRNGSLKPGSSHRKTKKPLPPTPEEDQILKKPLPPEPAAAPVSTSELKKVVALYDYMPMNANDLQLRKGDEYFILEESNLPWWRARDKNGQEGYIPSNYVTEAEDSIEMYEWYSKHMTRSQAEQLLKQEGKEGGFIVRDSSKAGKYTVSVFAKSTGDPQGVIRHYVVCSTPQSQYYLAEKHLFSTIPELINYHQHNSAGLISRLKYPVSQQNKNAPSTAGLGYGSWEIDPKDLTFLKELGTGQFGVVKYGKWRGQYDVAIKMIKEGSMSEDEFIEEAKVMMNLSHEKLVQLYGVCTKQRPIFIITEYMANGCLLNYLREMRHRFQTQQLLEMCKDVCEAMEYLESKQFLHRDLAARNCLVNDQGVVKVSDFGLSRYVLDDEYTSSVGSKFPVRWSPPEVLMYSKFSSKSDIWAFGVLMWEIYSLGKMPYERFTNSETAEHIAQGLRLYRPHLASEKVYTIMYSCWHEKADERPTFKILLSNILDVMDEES

Chain of MARK2 (Q7KZI7 whole entry): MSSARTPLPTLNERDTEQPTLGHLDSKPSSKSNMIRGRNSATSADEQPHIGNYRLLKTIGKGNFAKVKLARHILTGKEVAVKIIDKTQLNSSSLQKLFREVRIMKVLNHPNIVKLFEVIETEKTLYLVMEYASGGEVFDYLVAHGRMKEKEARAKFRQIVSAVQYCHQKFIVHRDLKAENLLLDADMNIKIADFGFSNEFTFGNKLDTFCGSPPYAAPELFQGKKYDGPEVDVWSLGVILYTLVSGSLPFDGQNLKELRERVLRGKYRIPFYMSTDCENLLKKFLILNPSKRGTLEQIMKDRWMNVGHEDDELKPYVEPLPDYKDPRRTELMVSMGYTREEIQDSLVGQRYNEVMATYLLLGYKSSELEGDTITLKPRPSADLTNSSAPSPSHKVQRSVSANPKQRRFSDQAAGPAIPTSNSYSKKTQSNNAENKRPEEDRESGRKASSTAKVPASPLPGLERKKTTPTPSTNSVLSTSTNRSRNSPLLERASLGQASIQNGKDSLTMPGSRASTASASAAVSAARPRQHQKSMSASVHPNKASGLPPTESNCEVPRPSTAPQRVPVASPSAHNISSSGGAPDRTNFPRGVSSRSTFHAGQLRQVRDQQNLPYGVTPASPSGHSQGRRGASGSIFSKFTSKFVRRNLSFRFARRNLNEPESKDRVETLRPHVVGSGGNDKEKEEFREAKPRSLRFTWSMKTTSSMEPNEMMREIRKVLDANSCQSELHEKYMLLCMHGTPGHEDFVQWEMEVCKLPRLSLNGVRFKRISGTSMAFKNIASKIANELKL

| SMILES | IC50 [1] | IC50 [2] | IC50 [3] [nM] | IC50 [4] | IC50 [5] | IC50 [6] | IC50 [7] | IC50 [8] | IC50 [9] |
| --- | --- | --- | --- | --- | --- | --- | --- | --- | --- |
| CN(C)CC(O)COc1ccc(Nc2ncc([N+](=O)[O-])c(Nc3ccccc3O)n2)cc1.O=C(O)C(F)(F)F (stereo not drawn) [TCMDC-141399] | 6400 nM | > 20000 nM | 9600 | 9900 nM | > 20000 nM | 580 nM | 4200 nM and 1700 nM | > 20000 nM | > 20000 nM |
| Cl.NCC1(c2nc(-c3ccc(Cl)c(O)c3)c(-c3ccncc3)[nH]2)CCCCC1 [TCMDC-141154] | > 20000 nM | > 20000 nM | 8000 | 290 nM and 330 nM | > 20000 nM | > 20000 nM | > 20000 nM | > 20000 nM | > 20000 nM |
| CN1CCN(c2ccc(Nc3ncc(C#N)c(Nc4ccccc4C(N)=O)n3)cc2)CC1.Cl [TCMDC-134116] | 220 nM and 210 nM | 890 nM and 740 nM | 1000 | 960 nM and 1400 nM | 770 nM and 580 nM | 48 nM and 47 nM | ≤ 32 nM | 60 nM and 95 nM | 600 nM and 670 nM |
